Experimental data taken from article PMC6571965, “Importance of the Proximity and Orientation of Ligand-Linkage to the Design of Cinnamate-GW9662 Hybrid Compounds as Covalent PPARγ Agonists” (Molecules, 2019).
Entries after “also recorded” stand apart in the source; their conditions may differ. Read-outs that look alike come from different tables or passages of the source.

Assays:
[1] = biological target: T1, human PPARγ LBD (Homo sapiens, UniProt P37231); test: PPARγ reporter assay (GAL4 DNA-binding domain/PPARγ LBD chimera, pUAS-tk-Luc luciferase) in HepG2 cells; format: cell-based; set-up: expressed in transfected cells; host or cells: HepG2; details: for EC50 / PPARγ agonist activity (in words): HepG2 cells, pGal4-human PPARγLBD, 6 h treatment; for EC50: mean ± SD, read-out: EC50 (PPARγ agonist activity); for fold more potent than previously synthesized compound 3: PPARγ agonist activity, compared with 3
T1 sequence (P37231 238-503 limits assumed): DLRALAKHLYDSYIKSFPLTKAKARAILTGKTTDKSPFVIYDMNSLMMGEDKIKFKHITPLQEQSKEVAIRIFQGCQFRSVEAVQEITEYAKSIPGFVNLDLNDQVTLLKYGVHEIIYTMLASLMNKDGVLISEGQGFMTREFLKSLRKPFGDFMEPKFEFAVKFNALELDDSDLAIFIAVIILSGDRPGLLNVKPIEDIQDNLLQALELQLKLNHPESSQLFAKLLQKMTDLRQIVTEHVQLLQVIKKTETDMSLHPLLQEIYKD
Method: PPARγ agonist activity was assessed by expression of a GAL4 DNA-binding domain/PPARγ LBD chimera protein using the plasmid pGAL4- PPARγ LBD and the luciferase reporter plasmid pUAS-tk-Luc containing the target sequence of GAL4 [20]. […] This supports our hypothesis that close proximity between the two fragments contributes to the improvement of binding affinity.
The PPARγ reporter assay was carried out as previously reported with slight modifications. pGal4-human PPARγLBD, pUAS-tk-luc and Renilla luciferase transfection control vector (pGL4.74, Promega, Madison, WI, USA) were transfected into HepG2 cells using Hily-max (Dojindo, Kumamoto, Japan) and PPARγ agonist activity was determined from the luciferase activity using the Dual-Luciferase Reporter Assay System (Promega) according to the manufacturer’s protocol.
Figure 2 Transactivation potentials of PPARγ by 4a, b, c, d, e, and 16. The luciferase reporter assay was performed in HepG2 cells transiently cotransfected with pGal4-humanPPARγLBD plasmid, pUAS-tk-Luc reporter, and pGL4.74[hRluc/TK] (Promega). Firefly luciferase activities were normalized to Renilla luciferase activities. Vehicle control data are denoted as 1. […] All the results are presented as the mean ± SD (n = 3) of three independent experiments. * p < 0.001, compared with vehicle control.

[2] = biological target: T2, recombinant PPARγ LBD (Cys285) (Homo sapiens, UniProt P37231); test: Rhodamine-maleimide assay for covalent modification of Cys285; format: binding; details: PPARγ LBD 2 µM, 30 min incubation at room temperature
T2 construct: recombinant PPARγ LBD (2 µM) was mixed with various ligands; gift of Dr. Takuji Oyama (Yamanashi University)
T2 sequence (P37231 238-503 limits assumed): T1 sequence (P37231 238-503 limits assumed)
From the text: (§1) To assess the interactions between the receptor and the synthesized compounds, we initially validated the formation of a covalent bond with Cys285 by performing a rhodamine-maleimide assay. This assay can detect the presence of a covalent modification of Cys285 in the PPARγ LBD because it has only one cysteine residue in its sequences. […] To further confirm the covalent bonding of the synthesized compounds, we conducted proteolytic mapping studies via mass spectroscopy using 4a as a representative compound and 4b as a negative control. The complexes between recombinant PPARγ LBD and the test compounds were trypsinized and subjected to MALDI-TOF MS. Covalent binding of 4a (mass of 466.1 Da) to the PPARγ LBD is assumed to result in a mass change of 431.1 Da for the modified tryptic peptide. By comparison of the tryptic digests of PPARγ, with and without 4a, a candidate peptide containing the attachment site for 4a ([…], m/z 499.7492 Da) was detected by its mass shift to m/z 714.8080 Da (detected as double charged; Figure 3B).
Rhodamine-Maleimide assay was performed as previously described. Briefly, recombinant PPARγ LBD (2 µM) was mixed with various ligands at the indicated concentrations in 20 mM Tris-HCl, pH8.0, 150 mM NaCl, and 1 mM tris(2-carboxylethyl)phosphine (TCEP). The mixture was incubated for 30 min at room temperature. SDS was added to the reaction mixture to a final concentration of 0.5%, followed by rhodamine red C2 maleimide (Life Technologies, Carlsbad, CA, USA) at a final concentration of 1 mM. After incubation at room temperature for 30 min, samples were treated with SDS-PAGE sample buffer containing β-mercaptoethanol for 30 min at 55 °C and were separated by SDS-PAGE. Fluorescent signals were visualized using the LAS1000 plus image analyzer (Fujifilm, Tokyo, Japan).
. (B), (C) Detection of covalent binding of 4a to Cys285 in the PPARγ LBD by ESI-MS/MS analysis. Fragmentation pattern of peptide […] was obtained from the trypsin digest. The calculated y- and b-ions of this peptide with observed ions underlined and the native or modified peptides detected in chromatogram are shown.

[3] = biological target: T3, human PPARγ LBD C285A mutant (Homo sapiens, UniProt P37231, C313A); test: Luciferase reporter gene assay with C285A mutant of pGal4-humanPPARγLBD in HepG2 cells; details: 6 h, troglitazone 10 μM
T3 sequence (P37231 232-505 C313A): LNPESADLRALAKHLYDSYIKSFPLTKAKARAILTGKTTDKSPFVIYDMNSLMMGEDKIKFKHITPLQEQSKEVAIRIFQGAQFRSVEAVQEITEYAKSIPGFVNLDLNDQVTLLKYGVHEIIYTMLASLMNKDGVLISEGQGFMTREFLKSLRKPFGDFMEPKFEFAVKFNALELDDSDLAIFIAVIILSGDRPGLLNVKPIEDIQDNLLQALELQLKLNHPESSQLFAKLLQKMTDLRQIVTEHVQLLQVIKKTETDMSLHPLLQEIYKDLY
From the text: (§2) We first examined the relationship between covalent binding to the Cys285 residue and the agonist activity by a luciferase reporter gene assay using PPARγ mutants where the cysteine was substituted to an alanine (C285A). […] To examine this idea, we monitored the levels of luciferase activity upon withdrawal of the synthesized agonists.

[4] = biological target: T1, human PPARγ LBD; test: Luciferase reporter assay after ligand withdrawal in HepG2 cells; details: 6 h treatment (troglitazone 10 μM; 4a, 4c 100 nM), washed, 24 h after withdrawal
From the text: as §2

[5] = biological target: T1, human PPARγ LBD; set-up: expressed in transfected cells; host or cells: HepG2; method as in PMID 26414848; details: previously synthesized compound; read-out: EC50 value (partial agonistic activity); cited from earlier work
[6] = biological target: T2, recombinant PPARγ LBD (Cys285); test: Proteolytic mapping by MS/MS of ligand modification of PPARγ LBD; format: binding; details: PPARγ LBD 20 µM, ligand 40 µM, 30 min, trypsin digest
From the text: as §1
LC-MS/MS detection was performed as previously described. Briefly, purified recombinant PPARγ LBD (20 µM) was incubated with ligands (40 µM) in 20 mM Tris-HCl, pH8.0, 150 mM NaCl, and 1 mM TCEP for 30 min. […]
. […] The calculated y- and b-ions of this peptide with observed ions underlined and the native or modified peptides detected in chromatogram are shown.

Structure (SMILES) | EC50 [1] | fluorescence of rhodamine-labeled PPARγ LBD (covalent bond with Cys285) [2] | PPARγ agonist activity (in words) [1] | also measured
CCOC(=O)CCc1ccc(Oc2cccc(NC(=O)c3cc([N+](=O)[O-])ccc3Cl)c2)cc1 [Compound 4e, Ethyl 3-{4-[3-(2-chloro-5-nitrobenzamido)phenoxy]phenyl}propanoate] | 2.54 ± 1.3 nM |  |  | 
CCOC(=O)/C=C/c1ccc(OCCc2ccc(NC(=O)c3cc([N+](=O)[O-])ccc3Cl)cc2)cc1 [Compound 16, (E)-Ethyl 3-(4-{2-[4-(2-chloro-5-nitrobenzamido)phenyl]ethoxy}phenyl)acrylate] |  | showed the decrease of fluorescence | disappearance of activity; also recorded: exhibited no agonistic activity | 
CCOC(=O)/C=C/c1ccc(Oc2ccccc2NC(=O)c2cc([N+](=O)[O-])ccc2Cl)cc1 [Compound 4c, (E)-Ethyl 3-{4-[2-(2-chloro-5-nitrobenzamido)phenoxy]phenyl}acrylate] | 4.11 ± 0.13 nM | decrease of labeled PPARγ LBD was also found |  | fold more potent than previously synthesized compound 3 [1]: about 3 fold; transactivation in the C285A mutant [3]: did not show the transactivation; luciferase transcription activity after withdrawal of ligand [4]: sustained transcription activity 24 h after withdrawal
O=C(Nc1ccccc1)c1cc([N+](=O)[O-])ccc1Cl [GW9662] |  | decreased |  | 
CCOC(=O)/C=C/c1ccc(Oc2ccc(NC(=O)c3cc([N+](=O)[O-])ccc3Cl)cc2)cc1 [Compound 4d, (E)-Ethyl 3-{4-[4-(2-chloro-5-nitrobenzamido)phenoxy]phenyl}acrylate] |  | showed the decrease of fluorescence | completely abolished; also recorded: exhibited no agonistic activity | 
CCOC(=O)/C=C/c1ccc(OCCc2cccc(NC(=O)c3cc([N+](=O)[O-])ccc3Cl)c2)cc1 [Compound 3] |  |  |  | EC50 [5]: 14 nM
CCOC(=O)/C=C/c1ccc(Oc2cccc(NC(=O)c3cccc([N+](=O)[O-])c3)c2)cc1 [Compound 4b, (E)-Ethyl 3-{4-[3-(3-nitrobenzamido)phenoxy]phenyl}acrylate] |  | decrease of fluorescence was not observed | had no agonist activity | covalent adduct with Cys285 detected by mass shift of tryptic peptide IFQGCQFR [6]: these mass shifts were not exhibited
CCOC(=O)/C=C/c1ccc(Oc2cccc(NC(=O)c3cc([N+](=O)[O-])ccc3Cl)c2)cc1 [Compound 4a, (E)-Ethyl 3-{4-[3-(2-chloro-5-nitrobenzamido)phenoxy]phenyl}acrylate] | 5.13 ± 0.45 nM | decrease of labeled PPARγ LBD was also found |  | covalent adduct with Cys285 detected by mass shift of tryptic peptide IFQGCQFR [6]: identified as the Cys285 residue; fold more potent than previously synthesized compound 3 [1]: about 3 fold; transactivation in the C285A mutant [3]: did not show the transactivation; luciferase transcription activity after withdrawal of ligand [4]: sustained transcription activity 24 h after withdrawal
